In publication PMC9268484, “New Flavonoid Derivatives from Melodorum fruticosum and Their α-Glucosidase Inhibitory and Cytotoxic Activities” (Molecules, 2022):
Read-outs that look alike come from different tables or passages of the source.

Columns and labels:
[1] = MTT cytotoxicity assay, KB; format: cell-based; conditions: human, means ± SD of three replicates
Description: (§1) The cancer cells were cultured in Dulbecco’s Modified Eagle’s Medium with 10% Fetal Bovine Serum, 1% penicillin and streptomycin, and 1% L-glutamine at 37 °C in a 5% CO2 environment. The tested compounds were added at concentrations ranging from 0.5 to 128 μg/mL by dissolving in DMSO (20 mg/mL) and incubated for a further 72 h in the identical condition. After the treatment, each well was filled with an MTT solution (10 μL, 5 mg/mL) of phosphate buffer, which was left to stand for 4 h until intracellular purple formazan crystals appeared. The MTT was removed and a 100 μL DMSO solution was added. The blank contained only a medium without any cells and MTT, as well as the solubilizing solution. The solution’s optical density (OD) at 540 nm was recorded on a BIOTEK reader. All experiments were carried out in triplicate for three independent experiments. IC50 values were computed graphically using inhibition curves.

[2] = MTT cytotoxicity assay, Hep G2; format: cell-based; conditions: human, means ± SD of three replicates
Description: as §1

[3] = MTT cytotoxicity assay, MCF7; format: cell-based; conditions: human, means ± SD of three replicates
Description: as §1

α-glucosidase = system: α-glucosidase; parameters: method as in doi:10.1016/S0031-9422(99)00314-3; conditions: cited from earlier work
MCF7 cell line = conditions: cited from earlier work
normal Vero cell line = system: normal Vero cell line; parameters: method as in doi:10.1007/s00044-017-1843-8; conditions: cited from earlier work
Hep G2 cell line = system: Hep G2 cell line; parameters: method as in PMID 29116937, doi:10.1016/j.phytol.2019.05.003; conditions: read-out: Cytotoxicity IC50, Hep G2 (previous research); cited from earlier work
KB cell line = system: KB cell line; parameters: method as in doi:10.1016/j.phytol.2012.09.007; conditions: read-out: Cytotoxicity IC50, KB (previous research); cited from earlier work
[4] = MCF-7 cells (human breast adenocarcinoma)
[5] = read-out: Cytotoxicity IC50, MCF7 (previous research)

For COc1cc2c(c(O)c1OC)C(=O)C[C@@H](c1ccccc1)O2 [Compound 6, onysilin], the IC50 at 72 h [1] was > 100 µM, the IC50 at 72 h [2] was > 100 µM and the IC50 at 72 h [3] was > 100 µM.
With CC(C)=CCc1cc2c(c(O)c1O)C(=O)C[C@@H](c1ccccc1)O2 [Compound 3, melodorone C] the IC50 at 72 h [3, 4] was > 100 µM.
For O=C1C[C@@H](c2ccccc2)Oc2cc(O)cc(O)c21 [Compound 7, pinocembrin], the IC50 at 72 h ([1]; KB cells (human epidermoid carcinoma)) was > 100 µM, the IC50 at 72 h ([2]; Hep G2 cells (human hepatocellular carcinoma)) was > 100 µM and the IC50 at 72 h [3, 4] was > 100 µM. The “α-Glucosidase inhibition (previous research, in words)” value (α-glucosidase) was “no α-glucosidase inhibition”, the IC50 (MCF7 cell line; 48 h, read-out: Cytotoxicity IC50, MCF7, 48 h) was 226 µM and the IC50 (MCF7 cell line; 72 h, read-out: Cytotoxicity IC50, MCF7, 72 h) was 108 µM. For the same compound, the “Cytotoxicity against normal Vero cell line” value (normal Vero cell line) was “no cytotoxicity”.
For O=c1cc(-c2ccccc2)oc2cc(O)cc(O)c12 [Compound 5, chrysin], the IC50 (α-glucosidase; read-out: α-Glucosidase inhibition IC50 (previous research)) is listed as 5.7 µM, the IC50 (Hep G2 cell line) is listed as 50.6 µM and the IC50 (MCF7 cell line; [5]) is listed as 37.2 µM. The “Cytotoxicity against normal Vero cell line” value (normal Vero cell line) was “no cytotoxicity”.
For COc1cc(O)c2c(=O)cc(-c3ccccc3)oc2c1 [Compound 4, tectochrysin], the “α-Glucosidase inhibition (previous research, in words)” value (α-glucosidase) is listed as “no α-glucosidase inhibition”, the IC50 (KB cell line) is listed as 55.3 µM and the IC50 (MCF7 cell line; [5]) is listed as 16.7 µM.
